Laboratory results published in ChEMBL document CHEMBL3301361, “Experimental in vitro DMPK and physicochemical data on a set of publicly disclosed compounds”.
In brackets after ≈: the same amount, converted by molar mass.

How the values were obtained:
[1] = in vitro; details: SD, HW or BN, rat, plasma
[2] = in vitro; details: mouse, plasma
[3] = in vitro; details: human, plasma
[4] = physchem; details: octan-1-ol/water
[5] = physchem; details: pH 7.4 buffer

Row | Structure (SMILES) | fraction unbound at 5 h [1] | fraction unbound at 5 h [2] | fraction unbound at 5 h ([3]; PPB) | also measured
1 | CCOc1cc(CN2CCC(Nc3nc4cc(S(N)(=O)=O)ccc4o3)CC2)cc(OCC)c1N | 0.11 | 0.0928 | 0.299 | –
2 | CC(O)(C(=O)Nc1ccc(S(=O)(=O)N2CCCC2)cc1)C(F)(F)F (stereo not drawn) | 0.119 | 0.0818 | 0.22 | –
3 | CS(=O)(=O)Nc1ccc2[nH]c(Cc3ccc(Oc4ccccc4)cc3)nc2c1 | 0.0061 | 0.0059 | 0.0055 | –
4 | COc1ccc(Cl)cc1C1(F)C(=O)Nc2cc(C(F)(F)F)ccc21 (stereo not drawn) | 0.0015 | 0.0019 | 0.0017 | –
5 | O=C(Nc1ccc(Cl)c(C(=O)Nc2cccnc2)c1)c1cccc(C(F)(F)F)c1 | – | 0.0119 | 0.003 | –
6 | CC#Cc1cncc(-c2cccc(C3(c4cc(C)c(OC)c(C)c4)N=C(C)C(N)=N3)c2)c1 (stereo not drawn) | – | 0.006 | 0.002 | –
7 | C[C@H](NC(=O)Cc1cc(F)cc(F)c1)C(=O)NC1C(=O)N(C)c2ccccc2-c2ccccc21 (stereo partly drawn) | – | 0.0171 | 0.0099 | logD ([4]; pH 7.4, LogD7.4): 3.6
8 | Cc1cnc(C(=O)c2ncnc3[nH]ccc23)c(NS(=O)(=O)c2ccc(Cl)c(C(F)(F)F)c2)c1 [ILACIRNON] | 0.0021 | 0.0069 | 0.0009 | –
9 | CC(C)NC(=O)c1nn(-c2ccc(Cl)cc2)c(=O)c2c(N)scc12 | – | 0.0219 | 0.0099 | –
10 | N#Cc1c(-c2ccc(-c3ccccc3Cl)cc2)nc2ccncc2c1O | – | 0.0022 | 0.0008 | –
11 | COc1cc(Nc2nc3c(c(Cc4ccccc4)n2)CN(CCO)CC3)ccc1-n1cnc(C)c1 | – | 0.02 | 0.0191 | –
12 | CC(C)NC[C@@H](O)COc1cccc2ccccc12 [DEXPROPRANOLOL] | 0.179 | 0.179 | – | fraction unbound at 5 h [3]: 0.176
13 | O=C(CC1CCN(Cc2ccn(-c3ccc(C(F)(F)F)cc3)c2)CC1)NC(c1ccncc1)c1ccc(Cl)cc1 (stereo not drawn) | – | 0.0051 | 0.013 | –
14 | Cc1[nH]c(C(=O)NC2CCN(c3ncc(C(=O)O)s3)CC2)c(Cl)c1Cl | – | 0.197 | 0.0293 | –
15 | CCOc1cc(CN2CCC(NC(=O)c3cncc(C)c3)CC2)cc(OCC)c1-c1ccc(F)cc1 | 0.0119 | 0.0139 | 0.0149 | –
16 | COc1cc(C(C)C)c(Oc2cnc(NC(CO)CO)nc2N)cc1I | 0.028 | 0.0581 | – | –
17 | C/C=C/c1ccc(Oc2nnnn2-c2ccc(C(N)=O)cc2)c(OC)c1 | – | 0.0428 | – | fraction unbound at 5 h [3]: 0.0268
18 | CCCN(c1cccc(C#N)c1)P(=O)(c1ccccc1)c1ccccc1 | 0.0633 | 0.0467 | – | fraction unbound at 5 h [3]: 0.0056
19 | Cc1cc(C)c(S(=O)(=O)NCc2ccncc2)c(C)c1 | 0.139 | 0.151 | 0.139 | –
20 | c1ccc2nc(COc3ccc(-c4n[nH]cc4-c4ccncc4)cc3)ccc2c1 | 0.0018 | 0.0013 | – | –
21 | c1cncc(Nc2ncc(-c3ccncn3)c(-c3ccco3)n2)c1 | 0.139 | 0.16 | 0.139 | –
22 | O=C1COc2nccc(-c3ccccc3F)c2CN1Cc1cc(C(F)(F)F)cc(C(F)(F)F)c1 | 0.0081 | 0.0095 | 0.0063 | –
23 | O=C(Nc1ccc(CN2CCNCC2)cc1-c1nc2ccccc2[nH]1)c1cnc2ccccc2n1 | 0.0801 | 0.0033 | 0.0009 | –
24 | COCC#Cc1cccc(C2(c3ccc(OC(F)F)cc3)N=C(N)N3CC(F)(F)CN=C32)c1 (stereo not drawn) | – | 0.013 | 0.0111 | –
25 | CC(C)S(=O)(=O)N(C)c1cc(C(=O)N[C@@H](Cc2ccccc2)[C@@H](N)CF)cc(NC[C@H]2C[C@@H]2C)n1 | – | 0.0191 | 0.0447 | –
26 | Cn1c(-c2cccc(F)c2)nc2c(N)nc(C#CC3(O)CCCC3)nc21 | – | 0.0752 | 0.119 | –
27 | O=c1[nH]c2cc(C(F)(F)F)ccc2n1-c1cc(C(F)(F)F)ccc1O | 0.0011 | 0.0021 | – | –

Row | Structure (SMILES) | fraction unbound at 5 h [1] | fraction unbound at 5 h [2] | fraction unbound at 5 h ([3]; PPB) | also measured
28 | CCCC[C@H](NC[C@@H]1Cc2cccc(c2)CCCCc2cc(cc(N(CCC)S(C)(=O)=O)c2)C(=O)N1)C(=O)NCC(C)C | – | 0.002 | 0.004 | –
29 | O=C1CCc2cc(-c3cncc4ccccc34)ccc2N1 | 0.0313 | 0.0313 | 0.0358 | –
30 | Cc1nccn1-c1sc(Nc2cnccn2)nc1-c1cccc(C#N)c1 | 0.0437 | 0.0335 | 0.0437 | –
31 | O=C1N(c2ccccc2)c2ccccc2C1(Cc1ccncc1)Cc1ccncc1 [LINOPIRDINE] | 0.101 | 0.179 | 0.004 | –
32 | CCCCCCC(=O)CCCCCC/C=C/C[C@@H](O)[C@H](O)[C@@](N)(CO)C(=O)O [MYRIOCIN] | 0.028 | 0.062 | – | –
33 | Fc1ccc(-c2c[nH]c(C3CCN(Cc4ccn(-c5ccc(C(F)(F)F)cc5)c4)CC3)n2)cc1 | – | 0.0023 | 0.0009 | –
34 | CC(C)Cn1cnc2c(N)nc3ccccc3c21 [IMIQUIMOD] | 0.179 | 0.0075 | – | solubility thermodynamic [5]: 63.1 µM (≈ 15.2 µg/mL); logD ([4]; pH 7.4, LogD7.4): 2.52
35 | NC1=NC(c2ccnc(C(F)(F)F)c2)(c2ccc(F)c(-c3cncnc3)c2)c2cccc(F)c21 (stereo not drawn) | – | 0.0409 | 0.0293 | –
36 | COc1ccc(C2(c3ccc(F)c(-c4cccnc4F)c3)N=C(N)N(C)C2=O)cc1C (stereo not drawn) | 0.0099 | 0.0081 | – | –
37 | CCNc1cc(C(=O)N[C@@H](Cc2ccccc2)[C@H](O)CNCc2cccc(C(F)(F)F)c2)c(F)c(N2CCCCS2(=O)=O)c1 | – | 0.016 | 0.0119 | –
38 | N#CCOc1ccccc1-c1ccc(-c2nc3ccncc3c(O)c2C#N)cc1 | – | 0.0149 | 0.0011 | –
39 | OC1(c2ccc(Cl)cc2)CCN(Cc2c[nH]c3ccccc23)CC1 | – | 0.0872 | – | solubility thermodynamic [5]: 562 µM (≈ 192 µg/mL); logD ([4]; pH 7.4): 2.25
40 | Cc1nc(-c2c(F)cc(Cl)cc2-c2cnc([C@@H](C)NC(=O)[C@@](C)(O)C(F)(F)F)c(F)c2)no1 | 0.0358 | 0.0251 | – | –
41 | NC(=O)c1ccc(-n2nnnc2Oc2ccc(Br)cc2)cc1 | 0.0872 | 0.0854 | – | –
42 | CC#Cc1cncc(-c2csc([C@]3(C)CC(=O)N(C)C(N)=N3)c2)c1 | – | 0.17 | 0.119 | –
43 | CCOc1cc2c(c(F)c1OCC)C(=N)N(CC(=O)c1cc(N3CCOCC3)c(OC)c(C(C)(C)C)c1)C2 [ATOPAXAR] | – | 0.0025 | 0.0021 | –
44 | CN1C(=N)N[C@](C)(c2cc(-c3cccc(C#N)c3)cs2)CC1=O | – | 0.249 | 0.0836 | –
45 | Nc1scc2c(C(=O)NC3CC3)nn(-c3ccc(Cl)cc3)c(=O)c12 | – | 0.0321 | 0.0179 | –
46 | Cn1cc(-c2ccncc2)c(-c2ccc(OCc3ccc4ccccc4n3)cc2)n1 [MARDEPODECT] | 0.0017 | 0.0039 | – | –
47 | Cc1cc(-c2ccc(-c3nc4ccncc4c(O)c3C#N)cc2)ccn1 | – | 0.013 | 0.0041 | logD ([4]; pH 7.4, LogD7.4): 1.6
48 | CCC(CC)[C@@H](CO)NS(=O)(=O)c1ccc(Cl)s1 [GSI-136] | 0.0909 | 0.11 | – | –
49 | C1Cc2[nH]nc(-c3nnn[nH]3)c2C1 | 0.072 | 0.371 | – | –
50 | C[C@H](c1ccc(F)cc1CCCC(=O)O)N(c1cc(F)ccc1F)S(=O)(=O)c1ccc(Cl)cc1 | – | 0.005 | 0.001 | logD ([4]; pH 7.4, LogD7.4): 3.1
51 | N#Cc1c(-c2ccc(-c3ccccc3OC(F)(F)F)cc2)nc2ccncc2c1O | – | 0.0013 | – | solubility thermodynamic [5]: 3.3 µM (≈ 1.34 µg/mL); logD ([4]; pH 7.4, LogD7.4): 3.45
52 | CCCn1c(=O)[nH]c2nc(-c3ccc(S(=O)(=O)N4CCN(Cc5ccc(Cl)cc5)CC4)cc3)[nH]c2c1=O | 0.0006 | 0.0007 | – | –
53 | COc1cc(Nc2nc3c(c(COC4CCCC4)n2)COCC3)ccc1-n1cnc(C)c1 | 0.0205 | 0.0149 | – | –
